Reference: patent US9630977B2, “Cephalosporin derivatives and pharmaceutical compositions thereof” (Legochem Biosciences, Inc., priority 2011, dated 2017)
≈ marks a conversion by molar mass, not a printed value. Read-outs that look alike come from different tables or passages of the source. Each block holds one molecule with its values, some of them ahead of it.

Legend:
Test in all cases: In vitro antibacterial activity test (broth microdilution)
Format in all cases: cell-based
P. aeruginosa 43 = settings: Pseudomonas aeruginosa
Procedure, shortened: (§1)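 MIC90 was determined by CLSI broth microdilution against clinical isolates, as the lowest concentration inhibiting visible growth of 90% of organisms relative to untreated control. Final compound concentrations spanned 0.0626–128 ug/mL with 2.5% (V/V) DMSO.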

A. baumannii 52 = settings: Acinetobacter baumannii
Procedure, shortened: as §1

E. coli AG100 = settings: Escherichia coli
Procedure, shortened: as §1

E. cloacae β19 = settings: Enterobacter cloacae
Procedure, shortened: as §1

M. catarrhalis 2524 = settings: Moraxella catarrhalis
Procedure, shortened: as §1

P. aeruginosa 37 = settings: Pseudomonas aeruginosa, 37, P. aeruginosa 37
Procedure, shortened: as §1

E. coli β4 = settings: Escherichia coli
Procedure, shortened: as §1

K. pneumoniae β13 = settings: Klebsiella pneumoniae
Procedure, shortened: as §1

[1] = system: A. calcoaceticus ATCC15473; settings: Acinetobacter calcoaceticus
Procedure, shortened: as §1

A. baumannii 46 = system: A. baumannii 46
Procedure, shortened: as §1

P. aeruginosa 6065Y = settings: Pseudomonas aeruginosa
Procedure, shortened: as §1

P. aeruginosa 1912E = settings: Pseudomonas aeruginosa, 1912E
Procedure, shortened: as §1

K. pneumoniae β10 = settings: Klebsiella pneumoniae
Procedure, shortened: as §1

K. pneumoniae β9 = settings: Klebsiella pneumoniae
Procedure, shortened: as §1

A. baumannii 49 = system: A. baumannii 49
Procedure, shortened: as §1

P. aeruginosa 40 = system: P. aeruginosa 40
Procedure, shortened: as §1

K. pneumoniae β11 = settings: Klebsiella pneumoniae
Procedure, shortened: as §1

K. pneumoniae β14 = settings: Klebsiella pneumoniae
Procedure, shortened: as §1

K. pneumoniae 2011E = settings: Klebsiella pneumoniae, 2011E
Procedure, shortened: as §1

[2] = ATCC15473, A. calcoaceticus ATCC15473
[3] = Acinetobacter baumannii, 46, A. baumannii 46
[4] = Acinetobacter baumannii, 49, A. baumannii 49

SMILES: CC(C)(O/N=C(\C(=O)N[C@@H]1C(=O)N2C(C(=O)[O-])=C(/C=C/C[n+]3cnc(N)c(NC(=O)CN)c3N)CSC12)c1csc(N)n1)C(=O)O (stereo partly drawn) [Compound 43]
MIC90 (P. aeruginosa 43; 43): > 128 µg/mL
MIC90 (A. baumannii 52; 52): > 128 µg/mL
MIC90 (E. coli AG100; AG100): 0.25 µg/mL (≈ 0.37 µM)
MIC90 (E. cloacae β19): 0.5 µg/mL (≈ 0.74 µM)
MIC90 (M. catarrhalis 2524; 2524): < 0.0625 µg/mL
MIC90 (P. aeruginosa 37): 32 µg/mL (≈ 47.4 µM)
MIC90 (E. coli β4): 0.5 µg/mL (≈ 0.74 µM)
MIC90 (K. pneumoniae β13): 0.5 µg/mL (≈ 0.74 µM)
MIC90 [1, 2]: 4 µg/mL (≈ 5.92 µM)
MIC90 (A. baumannii 46; [3]): 32 µg/mL (≈ 47.4 µM)
MIC90 (P. aeruginosa 6065Y; 6065Y): 16 µg/mL (≈ 23.7 µM)
MIC90 (P. aeruginosa 1912E): 4 µg/mL (≈ 5.92 µM)
MIC90 (K. pneumoniae β10): 0.5 µg/mL (≈ 0.74 µM)
MIC90 (K. pneumoniae β9): 1 µg/mL (≈ 1.48 µM)
MIC90 (A. baumannii 49; [4]): > 128 µg/mL
MIC90 (P. aeruginosa 40; Pseudomonas aeruginosa, 40): 16 µg/mL (≈ 23.7 µM)
MIC90 (K. pneumoniae β11): 32 µg/mL (≈ 47.4 µM)
MIC90 (K. pneumoniae β14): 1 µg/mL (≈ 1.48 µM)
MIC90 (K. pneumoniae 2011E): 0.5 µg/mL (≈ 0.74 µM)

SMILES: CC(C)(O/N=C(\C(=O)N[C@@H]1C(=O)N2C(C(=O)[O-])=C(/C=C/C[n+]3cnc(N)c(NCCCCN)c3)CSC12)c1nc(N)sc1Cl)C(=O)O (stereo partly drawn) [Compound 58]
MIC90 (P. aeruginosa 43; 43): > 128 µg/mL
MIC90 (A. baumannii 52; 52): 64 µg/mL (≈ 90.2 µM)
MIC90 (E. coli AG100; AG100): 0.5 µg/mL (≈ 0.705 µM)
MIC90 (E. cloacae β19): 8 µg/mL (≈ 11.3 µM)
MIC90 (M. catarrhalis 2524; 2524): < 0.0625 µg/mL
MIC90 (P. aeruginosa 37): 32 µg/mL (≈ 45.1 µM)
MIC90 (E. coli β4): 2 µg/mL (≈ 2.82 µM)
MIC90 (K. pneumoniae β13): 4 µg/mL (≈ 5.64 µM)
MIC90 [1, 2]: 4 µg/mL (≈ 5.64 µM)
MIC90 (A. baumannii 46; [3]): 32 µg/mL (≈ 45.1 µM)
MIC90 (P. aeruginosa 6065Y; 6065Y): 32 µg/mL (≈ 45.1 µM)
MIC90 (P. aeruginosa 1912E): 8 µg/mL (≈ 11.3 µM)
MIC90 (K. pneumoniae β10): 2 µg/mL (≈ 2.82 µM)
MIC90 (K. pneumoniae β9): 8 µg/mL (≈ 11.3 µM)
MIC90 (A. baumannii 49; [4]): 32 µg/mL (≈ 45.1 µM)
MIC90 (P. aeruginosa 40; Pseudomonas aeruginosa, 40): 16 µg/mL (≈ 22.6 µM)
MIC90 (K. pneumoniae β11): 8 µg/mL (≈ 11.3 µM)
MIC90 (K. pneumoniae β14): 4 µg/mL (≈ 5.64 µM)
MIC90 (K. pneumoniae 2011E): 2 µg/mL (≈ 2.82 µM)

SMILES: CC(C)(O/N=C(\C(=O)N[C@@H]1C(=O)N2C(C(=O)[O-])=C(/C=C/C[n+]3cnc(N)c(NCCCN)c3)CSC12)c1nc(N)sc1Cl)C(=O)O (stereo partly drawn) [Compound 57]
MIC90 (P. aeruginosa 43; 43): > 128 µg/mL
MIC90 (A. baumannii 52; 52): 64 µg/mL (≈ 92.1 µM)
MIC90 (E. coli AG100; AG100): 0.125 µg/mL (≈ 0.18 µM)
MIC90 (E. cloacae β19): 8 µg/mL (≈ 11.5 µM)
MIC90 (M. catarrhalis 2524; 2524): < 0.0625 µg/mL
MIC90 (P. aeruginosa 37): 8 µg/mL (≈ 11.5 µM)
MIC90 (E. coli β4): 0.125 µg/mL (≈ 0.18 µM)
MIC90 (K. pneumoniae β13): 0.5 µg/mL (≈ 0.719 µM)
MIC90 [1, 2]: 0.5 µg/mL (≈ 0.719 µM)
MIC90 (A. baumannii 46; [3]): 1 µg/mL (≈ 1.44 µM)
MIC90 (P. aeruginosa 6065Y; 6065Y): 16 µg/mL (≈ 23 µM)
MIC90 (P. aeruginosa 1912E): 0.5 µg/mL (≈ 0.719 µM)
MIC90 (K. pneumoniae β10): 0.25 µg/mL (≈ 0.36 µM)
MIC90 (K. pneumoniae β9): 1 µg/mL (≈ 1.44 µM)
MIC90 (A. baumannii 49; [4]): 64 µg/mL (≈ 92.1 µM)
MIC90 (P. aeruginosa 40; Pseudomonas aeruginosa, 40): 4 µg/mL (≈ 5.75 µM)
MIC90 (K. pneumoniae β11): 128 µg/mL (≈ 184 µM)
MIC90 (K. pneumoniae β14): 1 µg/mL (≈ 1.44 µM)
MIC90 (K. pneumoniae 2011E): 0.25 µg/mL (≈ 0.36 µM)

SMILES: CC(C)(O/N=C(\C(=O)N[C@@H]1C(=O)N2C(C(=O)[O-])=C(/C=C/C[n+]3cnc(N)c(NC(=O)CCCN)c3)CSC12)c1nsc(N)n1)C(=O)O (stereo partly drawn) [Compound 65]
MIC90 (P. aeruginosa 43; 43): > 128 µg/mL
MIC90 (A. baumannii 52; 52): 64 µg/mL (≈ 92.8 µM)
MIC90 (E. coli AG100; AG100): < 0.0625 µg/mL
MIC90 (E. cloacae β19): 32 µg/mL (≈ 46.4 µM)
MIC90 (M. catarrhalis 2524; 2524): < 0.0625 µg/mL
MIC90 (P. aeruginosa 37): 32 µg/mL (≈ 46.4 µM)
MIC90 (E. coli β4): 0.125 µg/mL (≈ 0.181 µM)
MIC90 (K. pneumoniae β13): 2 µg/mL (≈ 2.9 µM)
MIC90 [1, 2]: 0.5 µg/mL (≈ 0.725 µM)
MIC90 (A. baumannii 46; [3]): 64 µg/mL (≈ 92.8 µM)
MIC90 (P. aeruginosa 6065Y; 6065Y): 32 µg/mL (≈ 46.4 µM)
MIC90 (P. aeruginosa 1912E): 2 µg/mL (≈ 2.9 µM)
MIC90 (K. pneumoniae β10): 1 µg/mL (≈ 1.45 µM)
MIC90 (K. pneumoniae β9): 16 µg/mL (≈ 23.2 µM)
MIC90 (A. baumannii 49; [4]): 64 µg/mL (≈ 92.8 µM)
MIC90 (P. aeruginosa 40; Pseudomonas aeruginosa, 40): 4 µg/mL (≈ 5.8 µM)
MIC90 (K. pneumoniae β11): > 128 µg/mL
MIC90 (K. pneumoniae β14): 2 µg/mL (≈ 2.9 µM)
MIC90 (K. pneumoniae 2011E): 0.25 µg/mL (≈ 0.362 µM)

MIC90 (P. aeruginosa 43; P. aeruginosa 43, read-out: MIC90): 0.5 µg/mL (≈ 0.646 µM)
MIC90 (A. baumannii 52; A. baumannii 52, read-out: MIC90): > 128 µg/mL
MIC90 (E. coli AG100; AG100, E. coli AG100, read-out: MIC90): 0.25 µg/mL (≈ 0.323 µM)
MIC90 (E. cloacae β19; read-out: MIC90): 2 µg/mL (≈ 2.58 µM)
MIC90 (M. catarrhalis 2524; M. catarrhalis 2524, read-out: MIC90): 2 µg/mL (≈ 2.58 µM)
MIC90 (P. aeruginosa 37; read-out: MIC90): 0.5 µg/mL (≈ 0.646 µM)
MIC90 (E. coli β4; read-out: MIC90): 4 µg/mL (≈ 5.17 µM)
MIC90 (K. pneumoniae β13; K. pneumoniae β13, read-out: MIC90): 0.125 µg/mL (≈ 0.162 µM)
MIC90 ([1]; A. calcoaceticus ATCC15473, read-out: MIC90): 2 µg/mL (≈ 2.58 µM)
MIC90 (A. baumannii 46; Acinetobacter baumannii, A. baumannii 46, read-out: MIC90): 32 µg/mL (≈ 41.4 µM)
MIC90 (P. aeruginosa 6065Y; read-out: MIC90): 2 µg/mL (≈ 2.58 µM)
MIC90 (P. aeruginosa 1912E; read-out: MIC90): 0.5 µg/mL (≈ 0.646 µM)
MIC90 (K. pneumoniae β10; K. pneumoniae β10, read-out: MIC90): 0.5 µg/mL (≈ 0.646 µM)
MIC90 (K. pneumoniae β9; K. pneumoniae β9, read-out: MIC90): 2 µg/mL (≈ 2.58 µM)
MIC90 (A. baumannii 49; Acinetobacter baumannii, A. baumannii 49, read-out: MIC90): > 128 µg/mL
MIC90 (P. aeruginosa 40; Pseudomonas aeruginosa, 40, P. aeruginosa 40, read-out: MIC90): 0.5 µg/mL (≈ 0.646 µM)
MIC90 (K. pneumoniae β11; K. pneumoniae β11, read-out: MIC90): 8 µg/mL (≈ 10.3 µM)
MIC90 (K. pneumoniae β14; read-out: MIC90): 16 µg/mL (≈ 20.7 µM)
MIC90 (K. pneumoniae 2011E; K. pneumoniae 2011E, read-out: MIC90): 4 µg/mL (≈ 5.17 µM)
SMILES: CC(C)(O/N=C(\C(=O)N[C@@H]1C(=O)N2C(C(=O)[O-])=C(C[n+]3cnc(NCCNC(=O)c4cc(=O)c(O)cn4O)c(N)c3)CSC12)c1csc(N)n1)C(=O)O (stereo partly drawn) [Compound 6]

SMILES: CC(C)(O/N=C(\C(=O)N[C@@H]1C(=O)N2C(C(=O)[O-])=C(/C=C/C[n+]3cnc(N)c(NC(=O)CCN)c3N)CSC12)c1csc(N)n1)C(=O)O (stereo partly drawn) [Compound 66]
MIC90 (P. aeruginosa 43; 43): > 128 µg/mL
MIC90 (A. baumannii 52; 52): > 128 µg/mL
MIC90 (E. coli AG100; AG100): 0.25 µg/mL (≈ 0.362 µM)
MIC90 (E. cloacae β19): 0.25 µg/mL (≈ 0.362 µM)
MIC90 (M. catarrhalis 2524; 2524): < 0.0625 µg/mL
MIC90 (P. aeruginosa 37): 16 µg/mL (≈ 23.2 µM)
MIC90 (E. coli β4): 0.25 µg/mL (≈ 0.362 µM)
MIC90 (K. pneumoniae β13): 0.5 µg/mL (≈ 0.725 µM)
MIC90 [1, 2]: 2 µg/mL (≈ 2.9 µM)
MIC90 (A. baumannii 46; [3]): 16 µg/mL (≈ 23.2 µM)
MIC90 (P. aeruginosa 6065Y; 6065Y): 16 µg/mL (≈ 23.2 µM)
MIC90 (P. aeruginosa 1912E): 4 µg/mL (≈ 5.8 µM)
MIC90 (K. pneumoniae β10): 0.5 µg/mL (≈ 0.725 µM)
MIC90 (K. pneumoniae β9): 0.5 µg/mL (≈ 0.725 µM)
MIC90 (A. baumannii 49; [4]): > 128 µg/mL
MIC90 (P. aeruginosa 40; Pseudomonas aeruginosa, 40): 8 µg/mL (≈ 11.6 µM)
MIC90 (K. pneumoniae β11): 16 µg/mL (≈ 23.2 µM)
MIC90 (K. pneumoniae β14): 1 µg/mL (≈ 1.45 µM)
MIC90 (K. pneumoniae 2011E): 0.5 µg/mL (≈ 0.725 µM)
